Entries after “also recorded” stand apart in the source; their conditions may differ. Peptide text beside a SMILES is read from it.
What was measured:
CXCR4 [1] = target: T1, CXCR4 (Homo sapiens, UniProt P61073); assay: Gene reporter cell-cell fusion assay, HIV-1 coreceptor function of CXCR4; format: cell-based; parameters: expressed in transfected cells; host or cells: NIH/3T3 cells; conditions: for inhibition of T- and dual-tropic HIV-1 gp120-mediated cell-cell fusion via CXCR4 (in words): vSC60 (BH10) T-tropic and 89.6 dual-tropic isolates
Sup T1 cells = assay: Chemotaxis of Sup T1 cells induced by SDF-1; format: cell-based
Procedure: Migration of Sup T1 cells was assessed in disposable Transwell trays (Costar, Cambridge, Mass.) with 6.5 -mm diameter chambers and membrane pore size of […]. […] For peptide inhibition experiments, the cells were preincubated with various concentrations of the peptide for 15 min at 25° C. The peptide at the same concentration was also added to the lower well. After incubation at 37° C. and 5% CO2 for 4 h, cells that migrated to the lower well were counted. Chemotactic migration was determined by subtraction of cells migrated in medium alone (Blank control experiment).

CCR5 [2] = target: T2, CCR5 (Homo sapiens, UniProt P51681); assay: Intracellular calcium influx in CCR5 transfected 293 cells; format: cell-based
T2 construct: expressed in transfected cells; host or cells: 293 cells
Procedure: (§1) Sup T1 cells and CCR5 transfected 293 cells were used to measure the intracellular calcium influx. [Ca^2+]i was measured using excitation at 340 and 380 nm on a fluorescence spectrometer (Perkin Elmer LS50). Calibration was performed using 10% Triton X-100 for total fluorophore release and 0.5 M EGTA to chelate free Ca^2+. Intracellular Ca^2+ concentrations were calculated by using the fluorescence spectrometer measurement program.

CXCR4 [3] = target: T1, CXCR4; assay: CXCR4 internalization; format: cell-based; parameters: CEM-T4 cells were harvested and washed twice with PBS; endogenous in cells; host or cells: CEM-T4 cells
CCR5 [4] = target: T2, CCR5; assay: 125I-MIP-1β competitive binding to CCR5 (CCR5-transfected 293 cells); conditions: competitive binding with radiolabeled MIP-1β
Text: ^125I-MIP-1β Competitive Binding to CCR5
Following a similar experimental procedure as described above, 293 cells transfected with CCR5 and ^125I-MIP-1β were used to determine the specific binding activity of peptides to CCR5.

CXCR4 [5] = target: T1, CXCR4; assay: Intracellular calcium influx in Sup T1 cells; format: cell-based; parameters: endogenous in cells
Procedure: as §1

CXCR4 [6] = target: T1, CXCR4; assay: anti-CXCR4 mAb 12G5 competitive binding (flow cytometry, Sup T1 cells); parameters: endogenous in cells; conditions: relative to SDF-1
Procedure: Sup T1 cells (2×10^5) were washed with FACS buffer (0.5% bovine serum albumin, 0.05% sodium azide in PBS) and incubated with an anti-CXCR4 monoclonal antibody (mAb) 12G5 (10 μg/ml) for 30 min at 4° C. After washing with FACS buffer, cells were incubated with 10 μg FITC conjugated goat anti-mouse IgG (Southern Biotechnology Associates, Inc. Birmingham, Ala.) for 30 min at 4° C. After washing twice with FACS buffer, cells were fixed in the fixing buffer (2% palaformaldehyde in PBS) and then analyzed on a FACScan flow cytometer (Coulter EPICS Elite, Coolten Corp., Hialeah, Fla.).

CCR5 [7] = target: T2, CCR5; assay: Gene reporter cell-cell fusion assay, HIV-1 coreceptor function of CCR5; format: cell-based
CXCR4 [8] = target: T1, CXCR4; assay: 125I-SDF-1α competitive binding to CXCR4 (CEM-T4 cells); parameters: endogenous in cells; host or cells: CEM-T4 cells; conditions: for CXCR4 binding (in words): 125I-SDF-1α competitive binding, FIG. 1
Procedure: ^125I-SDF-1α Competitive Binding to CXCR4
CEM-T4 cells were harvested and washed twice with PBS. […] Nonspecific binding was determined by the addition of 100 nM unlabeled SDF-1α Samples were incubated for 60 min at room temperature. The incubation was terminated by separating the cells from the binding buffer by centrifugation and washing once with 500 μl of cold binding buffer. Bound ligands were quantitated by counting γ emissions.

T1 sequence (P61073 whole entry, the tested form may be a part): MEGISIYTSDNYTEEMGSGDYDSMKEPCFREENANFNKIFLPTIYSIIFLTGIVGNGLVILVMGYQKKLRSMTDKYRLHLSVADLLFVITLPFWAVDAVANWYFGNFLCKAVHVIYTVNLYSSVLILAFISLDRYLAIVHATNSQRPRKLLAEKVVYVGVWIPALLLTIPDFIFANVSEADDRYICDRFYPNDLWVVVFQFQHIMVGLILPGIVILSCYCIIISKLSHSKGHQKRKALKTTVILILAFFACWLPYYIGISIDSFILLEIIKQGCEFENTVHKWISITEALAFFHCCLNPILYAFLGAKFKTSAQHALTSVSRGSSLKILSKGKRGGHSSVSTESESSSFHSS
T2 sequence (P51681 whole entry): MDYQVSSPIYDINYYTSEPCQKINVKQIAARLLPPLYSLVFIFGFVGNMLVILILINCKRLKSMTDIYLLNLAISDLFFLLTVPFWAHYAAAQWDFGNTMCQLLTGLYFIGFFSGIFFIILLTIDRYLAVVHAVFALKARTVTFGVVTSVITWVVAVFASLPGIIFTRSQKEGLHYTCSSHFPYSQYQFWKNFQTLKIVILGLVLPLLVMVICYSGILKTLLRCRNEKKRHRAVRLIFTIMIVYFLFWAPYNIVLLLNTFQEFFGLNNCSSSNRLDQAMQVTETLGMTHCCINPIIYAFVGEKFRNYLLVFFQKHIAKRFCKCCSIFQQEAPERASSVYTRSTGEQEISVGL

CC(C)C[C@H](NC(=O)[C@H](CS)NC(=O)[C@H](CS)NC(=O)[C@H](CCCCN)NC(=O)[C@H](CC(=O)O)NC(=O)[C@@H]1CCCN1C(=O)[C@H](CCCNC(=N)N)NC(=O)[C@H](Cc1c[nH]cn1)NC(=O)[C@H](Cc1c[nH]c2ccccc12)NC(=O)[C@H](CO)NC(=O)[C@H](C)NC(=O)CNC(=O)[C@@H](N)CC(C)C)C(=O)NCC(=O)N[C@@H](Cc1ccc(O)cc1)C(=O)N[C@@H](CCC(N)=O)C(=O)N[C@@H](CCCCN)C(=O)N[C@@H](CCCNC(=N)N)C(=O)N1CCC[C@H]1C(=O)N[C@@H](CC(C)C)C(=O)N1CCC[C@H]1C(N)=O [V1] (H-LGASWHRPDKCCLGYQKRPLP-NH2; N-terminus and C-terminus assumed) was tested, and the “inhibition of T- and dual-tropic HIV-1 gp120-mediated cell-cell fusion via CXCR4 (in words)” value (CXCR4 [1]) was “showed inhibition”, the “inhibition of chemotactic activity of SDF-1 (in words)” value (Sup T1 cells) was “inhibit the chemotactic activity of SDF-1 in a concentration dependent manner” and the “signaling activity via CCR5 (calcium influx, in words)” value (CCR5 [2]) was “neither displayed signaling activity”. For the same molecule, the “blocking of signal induced by MIP-1β via CCR5 (in words)” value (CCR5 [2]; MIP-1β 100 nM) was “nor blocked the signal”, the “induction of CXCR4 internalization (in words)” value (CXCR4 [3]) was “induction of CXCR4 internalization” and the “CCR5 binding (in words)” value (CCR5 [4]) was “did not display any interaction”. The “blocking of SDF-1 signal (calcium influx, in words)” value (CXCR4 [5]; peptide 200 μM, SDF-1 100 nM) was “almost completely blocked SDF-1 signal”, the “signaling activity via CXCR4 (calcium influx, in words)” value (CXCR4 [5]; various concentrations) was “did not show any signaling activity” and the “fold less potent than SDF-1, mAb 12G5 competition” value (CXCR4 [6]) was “about 33 fold”. The “effect on M-tropic HIV-1 gp120-mediated cell-cell fusion via CCR5 (in words)” value (CCR5 [7]) was “displayed no effect” and the “fold less potent than SDF-1, 125I-SDF-1α competition” value (CXCR4 [8]; relative to SDF-1) was about 70 fold.
“HRPDKCCLGYQKR (v-MIPII derived peptide) [V2, VMIP-II, 6-18]” was tested, and the “inhibition of T- and dual-tropic HIV-1 gp120-mediated cell-cell fusion via CXCR4 (in words)” value (CXCR4 [1]) was “did not show any activity”, the “effect on CCR5 signal transduction (in words)” value (CCR5 [2]) was “did not show any effect” and the “CCR5 binding (in words)” value (CCR5 [4]) was “does not bind”. The “effect on CXCR4 signal transduction (in words)” value (CXCR4 [5]) was “did not show any effect”, the “effect on M-tropic HIV-1 gp120-mediated cell-cell fusion via CCR5 (in words)” value (CCR5 [7]) was “displayed no effect” and the “CXCR4 binding (in words)” value (CXCR4 [8]) was “significant loss in CXCR4 binding; also recorded: does not bind”.
With “LGASWHRPDK (v-MIPII derived peptide) [V3, VMIP-II, 1-10]” the “CXCR4 binding (in words)” value (CXCR4 [8]) was “retained some activity”.
In the case of “SDF-1: Recombinant human chemokine, Stromal cell Derived Factor-1, a natural CXCR4 ligand, used as control [reference compound]”, the “inhibition of cell-cell fusion” value (CXCR4 [1]; at 200 nM) is reported as 45%.

From US20030220482A1, “Novel peptide antagonist of CXCR4 derived from the N-terminus of the viral chemokine vMIP-II” (priority 2000, published 2003)
